# Laboratory results from ChEMBL document CHEMBL3885861, “Open TG-GATES”.
# Species on record: Rattus norvegicus
# Test: Open TG-GATES - Regimen: Single
# Assay type: toxicity, organism-based, Sprague-Dawley
# Parameters: regimen Single, gender Male, age 6 weeks
# Settings: in vivo, po, route gavage; for WBC / APTT / Bas / Eos / Fbg / Hb / Ht / Lym / MCH / MCHC / MCV / Mono / Neu / PT / Plat / RBC / Ret: tissue Blood; for KIDNEY_L / KIDNEY_R / KIDNEY_TOTAL: tissue Kidney; for LIVER: tissue Liver; for ALP / ALT / AST / BUN / CRE / Ca / Cl / DBIL / GLC / IP / K / LDH / Na / PL / RALB / TBIL / TC / TP / gamma-GTP: tissue Plasma
# [1] = 5 mg/kg, 9 h, dose level Middle
# [2] = 5 mg/kg, 24 h, dose level Middle
smiles,measurement,setting,value
O=P1(N(CCCl)CCCl)NCCCO1 (stereo unspecified) [CYCLOPHOSPHAMIDE ANHYDROUS],WBC,[1],57.2 x10_2/uL
same,KIDNEY_L,[1],0.9 g
same,KIDNEY_R,[1],0.9 g
same,KIDNEY_TOTAL,[1],1.8 g
same,LIVER,[1],7.9 g
same,ALP,[1],1360.2 IU/L
same,ALT,[1],35.2 IU/L
same,AST,[1],65.8 IU/L
same,BUN,[1],9 mg/dL
same,CRE,[1],0.1 mg/dL
same,Ca,[1],10.5 mg/dL
same,Cl,[1],106.6 meq/L
same,DBIL,[1],0.002 mg/dL
same,GLC,[1],179.4 mg/dL
same,IP,[1],9.7 mg/dL
same,K,[1],4 meq/L
same,LDH,[1],146.8 IU/L
same,Na,[1],143.6 meq/L
same,PL,[1],129.8 mg/dL
same,RALB,[1],3 g/dL
same,TBIL,[1],0.042 mg/dL
same,TC,[1],76.8 mg/dL
same,TP,[1],5.5 g/dL
same,gamma-GTP,[1],1 IU/L
same,TERMINAL_BW,[2],203.3 g
same,APTT,[2],22.1 s
same,Bas,[2],0%
same,Eos,[2],1%
same,Fbg,[2],307.6 mg/dL
same,Hb,[2],12.8 g/dL
same,Ht,[2],38.5%
same,Lym,[2],88.4%
same,MCH,[2],21.4 pg
same,MCHC,[2],33.3%
same,MCV,[2],64.1 fL
same,Mono,[2],1.6%
same,Neu,[2],8%
same,PT,[2],16.2 s
same,Plat,[2],134.5 x10_4/uL
same,RBC,[2],600.4 x10_4/ul
same,Ret,[2],7.3%
same,WBC,[2],58.1 x10_2/uL
same,KIDNEY_L,[2],0.9 g
same,KIDNEY_R,[2],0.9 g
same,KIDNEY_TOTAL,[2],1.9 g
same,LIVER,[2],9.4 g
same,ALP,[2],1835.8 IU/L
same,ALT,[2],48.6 IU/L
same,AST,[2],73.2 IU/L
same,BUN,[2],15.4 mg/dL
same,CRE,[2],0.2 mg/dL
same,Ca,[2],10.7 mg/dL
same,Cl,[2],105.2 meq/L
same,DBIL,[2],0.002 mg/dL
same,GLC,[2],180.2 mg/dL
same,IP,[2],8 mg/dL
same,K,[2],4.2 meq/L
same,LDH,[2],156.8 IU/L
same,Na,[2],142.8 meq/L
same,PL,[2],148.4 mg/dL
same,RALB,[2],3 g/dL
same,TBIL,[2],0.014 mg/dL
same,TC,[2],76.2 mg/dL
same,TP,[2],5.5 g/dL
same,gamma-GTP,[2],1 IU/L
same,TERMINAL_BW,"15 mg/kg, 3 h, dose level High",195.2 g
same,TERMINAL_BW,"15 mg/kg, 3 h, dose level Low",191.1 g
same,APTT,"15 mg/kg, 3 h, dose level High",21.4 s
same,Bas,"15 mg/kg, 3 h, dose level High",0%
same,Eos,"15 mg/kg, 3 h, dose level High",0.8%
same,Fbg,"15 mg/kg, 3 h, dose level High",291.2 mg/dL
same,Hb,"15 mg/kg, 3 h, dose level High",13 g/dL
same,Ht,"15 mg/kg, 3 h, dose level High",38.9%
same,Lym,"15 mg/kg, 3 h, dose level High",76.2%
same,MCH,"15 mg/kg, 3 h, dose level High",21.2 pg
same,MCHC,"15 mg/kg, 3 h, dose level High",33.4%
same,MCV,"15 mg/kg, 3 h, dose level High",63.4 fL
same,Mono,"15 mg/kg, 3 h, dose level High",1.8%
same,Neu,"15 mg/kg, 3 h, dose level High",20.2%
same,PT,"15 mg/kg, 3 h, dose level High",15.6 s
same,Plat,"15 mg/kg, 3 h, dose level High",120 x10_4/uL
same,RBC,"15 mg/kg, 3 h, dose level High",613.8 x10_4/ul
same,Ret,"15 mg/kg, 3 h, dose level High",8.2%
same,WBC,"15 mg/kg, 3 h, dose level High",75.9 x10_2/uL
same,APTT,"15 mg/kg, 3 h, dose level Low",16.4 s
same,Fbg,"15 mg/kg, 3 h, dose level Low",273.4 mg/dL
same,Hb,"15 mg/kg, 3 h, dose level Low",12.8 g/dL
same,Ht,"15 mg/kg, 3 h, dose level Low",38.1%
same,Lym,"15 mg/kg, 3 h, dose level Low",81.6%
same,MCH,"15 mg/kg, 3 h, dose level Low",21 pg
same,MCHC,"15 mg/kg, 3 h, dose level Low",33.5%
same,MCV,"15 mg/kg, 3 h, dose level Low",62.8 fL
same,Mono,"15 mg/kg, 3 h, dose level Low",2.8%
same,Neu,"15 mg/kg, 3 h, dose level Low",14.2%
same,PT,"15 mg/kg, 3 h, dose level Low",13.8 s
same,Plat,"15 mg/kg, 3 h, dose level Low",112.1 x10_4/uL
same,RBC,"15 mg/kg, 3 h, dose level Low",608.2 x10_4/ul
same,Ret,"15 mg/kg, 3 h, dose level Low",8.6%
same,WBC,"15 mg/kg, 3 h, dose level Low",94.2 x10_2/uL
same,KIDNEY_L,"15 mg/kg, 3 h, dose level High",0.9 g
same,KIDNEY_R,"15 mg/kg, 3 h, dose level High",0.9 g
same,KIDNEY_TOTAL,"15 mg/kg, 3 h, dose level High",1.7 g
same,KIDNEY_L,"15 mg/kg, 3 h, dose level Low",0.8 g
same,KIDNEY_R,"15 mg/kg, 3 h, dose level Low",0.8 g
same,KIDNEY_TOTAL,"15 mg/kg, 3 h, dose level Low",1.6 g
same,LIVER,"15 mg/kg, 3 h, dose level High",9 g
same,LIVER,"15 mg/kg, 3 h, dose level Low",8.5 g
same,ALP,"15 mg/kg, 3 h, dose level High",1506.2 IU/L
same,ALT,"15 mg/kg, 3 h, dose level High",38.8 IU/L
same,AST,"15 mg/kg, 3 h, dose level High",70.6 IU/L
same,BUN,"15 mg/kg, 3 h, dose level High",11 mg/dL
same,CRE,"15 mg/kg, 3 h, dose level High",0.1 mg/dL
same,Ca,"15 mg/kg, 3 h, dose level High",10.7 mg/dL
same,Cl,"15 mg/kg, 3 h, dose level High",105.6 meq/L
same,DBIL,"15 mg/kg, 3 h, dose level High",0 mg/dL
same,GLC,"15 mg/kg, 3 h, dose level High",179.4 mg/dL
same,IP,"15 mg/kg, 3 h, dose level High",9.1 mg/dL
same,K,"15 mg/kg, 3 h, dose level High",4.1 meq/L
same,LDH,"15 mg/kg, 3 h, dose level High",197.8 IU/L
same,Na,"15 mg/kg, 3 h, dose level High",142.6 meq/L
same,PL,"15 mg/kg, 3 h, dose level High",136 mg/dL
same,RALB,"15 mg/kg, 3 h, dose level High",2.9 g/dL
same,TBIL,"15 mg/kg, 3 h, dose level High",0.032 mg/dL
same,TC,"15 mg/kg, 3 h, dose level High",71.8 mg/dL
same,TP,"15 mg/kg, 3 h, dose level High",5.3 g/dL
same,gamma-GTP,"15 mg/kg, 3 h, dose level High",1 IU/L
same,ALP,"15 mg/kg, 3 h, dose level Low",1407.8 IU/L
same,ALT,"15 mg/kg, 3 h, dose level Low",39 IU/L
same,AST,"15 mg/kg, 3 h, dose level Low",74.2 IU/L
same,BUN,"15 mg/kg, 3 h, dose level Low",10.2 mg/dL
same,CRE,"15 mg/kg, 3 h, dose level Low",0.2 mg/dL
same,Ca,"15 mg/kg, 3 h, dose level Low",10.9 mg/dL
same,DBIL,"15 mg/kg, 3 h, dose level Low",0.014 mg/dL
same,GLC,"15 mg/kg, 3 h, dose level Low",173.8 mg/dL
same,IP,"15 mg/kg, 3 h, dose level Low",8.1 mg/dL
same,K,"15 mg/kg, 3 h, dose level Low",4.4 meq/L
same,LDH,"15 mg/kg, 3 h, dose level Low",64 IU/L
same,Na,"15 mg/kg, 3 h, dose level Low",141.2 meq/L
same,PL,"15 mg/kg, 3 h, dose level Low",136.4 mg/dL
same,RALB,"15 mg/kg, 3 h, dose level Low",2.4 g/dL
same,TBIL,"15 mg/kg, 3 h, dose level Low",0.056 mg/dL
